Assay results from patent publication US4871744A, “Certain 2,3-dihydro-indole-1-carboxamido-N-[8-azabicyclo(3.2.1)octan-3-yl]d e” (priority 1988, dated 1989).
Structures can show the parent of a compound that is named as a salt.

These compounds were tested on von Bezold-Jarisch reflex evoked by 5-HT (assay: Antagonism of the von Bezold-Jarisch reflex evoked by 5-HT in the anaesthetised rat). Settings: Rattus norvegicus, iv; urethane-anaesthetised male rats; 5-HT-evoked changes in heart rate; 5-HT usually 6 μg/kg i.v.; read-out: ED50 (concentration required to reduce the 5HT-evoked response to 50% of the control response).
Assay type: in vivo
Protocol: Antagonism of the von Bezold-Jarisch reflex
The compounds were evaluated for antagonism of the von Bezold-Jarisch reflex evoked by 5-HT in the anaesthetised rat according to the following method:
Pharmacol. 2, 229-245 (1980). A submaximal dose of 5-HT (usually 6 μg/kg) was given repeatedly by the intravenous route and changes in heart rate quantified. Compounds were given intravenously and the concentration required to reduce the 5HT-evoked response to 50% of the control response (ED50) was then determined.
Work on `CC1CN(C(=O)N[C@H]2C[C@H]3CC[C@@H](C2)N3C)c2ccccc21` (stereo partly drawn) [Example 4, endo-N-(8-Methyl-8-azabicyclo[3.2.1]oct-3-yl)-2,3-dihydro-3-methylindole-1-carboxamide hydrochloride] yielded an ED50 of 3 µg/kg.
With `CN1[C@@H]2CC[C@H]1C[C@@H](NC(=O)N1CCc3ccc([N+](=O)[O-])cc31)C2` [Example 17, endo-N-(8-Methyl-8-azabicyclo[3.2.1]oct-3-yl)-2,3-dihydro-6-nitroindole-1-carboxamide hydrochloride] the ED50 was > 10 µg/kg.
In the case of `CN1[C@@H]2CC[C@H]1C[C@@H](OC(=O)N1CCc3ccccc31)C2` [Example 3, endo(8-Methyl-8-azabicyclo[3.2.1]oct-3-yl)-2,3-dihydroindole carboxylic acid ester], the ED50 is reported as 5 µg/kg.
`COc1ccc2c(c1)CCN2C(=O)N[C@H]1C[C@H]2CC[C@@H](C1)N2C` [Example 10, endo-N-(8-Methyl-8-azabicyclo[3.2.1]oct-3-yl)2,3-dihydro-5-methoxyindole-1-carboxamide] showed an ED50 of 7 µg/kg.
In the case of `CCN1[C@@H]2CC[C@H]1C[C@@H](NC(=O)N1CCc3ccccc31)C2` [Example 7, endo-N-(8-Ethyl-8-azabicyclo[3.2.1]oct-3-yl)-2,3-dihydroindole-1-carboxamide], the ED50 is reported as > 10 µg/kg.
`Cc1cn(C(=O)N[C@H]2C[C@H]3CC[C@@H](C2)N3C)c2ccccc12` [Example 6, endo-N-(8-Methyl-8-azabicyclo[3.2.1]oct-3-yl)-3-methylindole-1-carboxamide hydrochloride] showed an ED50 of 1.6 µg/kg.
`CC1N(C(=O)N[C@H]2C[C@H]3CC[C@@H](C2)N3C)c2ccccc2C1(C)C` (stereo partly drawn) [Example 21, (endo)-N-(8-Methyl-8-azabicyclo[3.2.1]oct-3-yl)-2,3-dihydro-2,3,3-trimethylindole-1-carboxamide hydrochloride] was tested, and the ED50 was 1.4 µg/kg.
`CN1[C@@H]2CC[C@H]1C[C@@H](NC(=O)n1ccc3ccccc31)C2` [Example 11, endo-N-(8-Methyl-8-azabicyclo[3.2.1]oct-3-yl)indole-1-carboxamide hydrochloride] gave an ED50 of 7.7 µg/kg.
`Cl.O=C(NC1CN2CCC1CC2)N1CCc2ccccc21` (stereo not shown) [Example 12, N-(1-Azabicyclo[2.2.2]oct-3-yl)2,3-dihydroindole-1-carboxamide hydrochloride] showed an ED50 of 4.4 µg/kg.
`CC1(C)CN(C(=O)NC2CN3CCC2CC3)c2ccccc21` (stereo not shown) [Example 18, N-(1-Azabicyclo[2.2.2]oct-3-yl)2,3-dihydro-3,3-dimethylindole-1-carboxamidehydrochloride] showed an ED50 of 5.3 µg/kg.
For `CN1[C@@H]2CC[C@H]1C[C@@H](NC(=O)N1CCc3cc([N+](=O)[O-])ccc31)C2` [Example 16, endo-N-(8-Methyl-8-azabicyclo[3.2.1]oct-3-yl)-2,3-dihydro-5-nitroindole-1-carboxamide], the ED50 was > 10 µg/kg.
`CCc1cn(C(=O)N[C@H]2C[C@H]3CC[C@@H](C2)N3C)c2ccccc12` [Example 15, endo-N-(8-Methyl-8-azabicyclo[3.2.1]-oct-3-yl)-3-ethylindole-1-carboxamide hydrochloride] showed an ED50 of 2 µg/kg.
`CN1[C@@H]2CC[C@H]1C[C@@H](NC(=O)N1CCc3cc(F)ccc31)C2` [Example 8, endo-N-(8-Methyl-8-azabicyclo[3.2.1]oct-3-yl)-5-fluoro-2,3-dihydroindole-1-carboxamide hydrochloride] gave an ED50 of 17 µg/kg.
`CN1[C@@H]2CC[C@H]1C[C@@H](NC(=O)N1CCc3ccccc31)C2` [Example 2, endo-N-(8-Methyl-8-azabicyclo[3.2.1]oct-3-yl)-2,3-dihydroindole-1-carboxamide] gave an ED50 of 1.4 µg/kg.
`CN1[C@@H]2CCC[C@H]1C[C@@H](NC(=O)N1CCc3ccccc31)C2` [Example 1, endo-N-(9-Methyl-9-azabicyclo[3.3.1]non-3-yl)-2,3-dihydroindole-1-carboxamide] was tested, and the ED50 was 12.5 µg/kg.
`CC1c2ccccc2N(C(=O)N[C@H]2C[C@H]3CC[C@@H](C2)N3C)C1C` (stereo partly drawn) [Example 20, (endo)-N-(8-Methyl-8-azabicyclo[3.2.1]oct-3-yl)-2,3-dihydro-2,3-dimethylindole-1-carboxamide] showed an ED50 of 0.53 µg/kg.
`CC(C)C1CN(C(=O)N[C@H]2C[C@H]3CC[C@@H](C2)N3C)c2ccccc21` (stereo partly drawn) [Example 22, (endo)-N-(8-Methyl-8-azabicyclo[3.2.1]oct-3-yl)-2,3-dihydro-3-isopropylindole-1-carboxamide hydrochloride] gave an ED50 of 0.56 µg/kg.
With `CC1Cc2ccccc2N1C(=O)N[C@H]1C[C@H]2CC[C@@H](C1)N2C` (stereo partly drawn) [Example 19, (endo)-N-(8-Methyl-8-azabicyclo[3.2.1]oct-3-yl)-2,3-dihydro-2-methylindole-1-carboxamide hydrochloride] the ED50 was 0.79 µg/kg.
With `CN1[C@@H]2CC[C@H]1C[C@@H](NC(=O)N1CC(C)(C)c3ccccc31)C2` [Example 5, endo-N-(8-Methyl-8-azabicyclo[3.2.1]oct-3-yl)-2,3-dihydro-3,3-dimethylindole-1-carboxamide] the ED50 was 0.58 µg/kg.
In the case of `CN1[C@@H]2CC[C@H]1C[C@@H](NC(=O)N1CCc3cc(Cl)ccc31)C2` [Example 9, endo-N-(8-Methyl-8-azabicyclo[3.2.1]oct-3-yl)-2,3-dihydro-5-chloroindole-1-carboxamide], the ED50 is reported as > 10 µg/kg.
Compound `CCC1CN(C(=O)N[C@H]2C[C@H]3CC[C@@H](C2)N3C)c2ccccc21` (stereo partly drawn) [Example 14, endo-N-(8-Methyl-8-azabicyclo[3.2.1]oct-3-yl)-2,3-dihydro-3-ethylindole-1-carboxamide hydrochloride] has an ED50 of 1 µg/kg.

Same assay, conditions: i.v.; urethane-anaesthetised male rats; 5-HT-evoked changes in heart rate; 5-HT usually 6 μg/kg i.v.
For `O=C(OC1CN2CCC1CC2)N1CCc2ccccc21` (stereo not shown) [Example 13, N-(1-Azabicyclo[2.2.2]oct-3-yl)-2,3-dihydroindole-1-carboxylic acid ester], the “ED50 (concentration required to reduce the 5HT-evoked response to 50% of the control response)” value was 3.9 µg/kg.
